Measured values published in patent publication US20060223117A1, “Novel splice variants of human epithelial sodium channel genes expressed in human taste tissue and uses thereof” (SENOMYX, INC., priority 2005, published 2006).
“Also recorded” adds a separate entry of the source.

Legend:
perceived salt intensity = test: Senomyx human taste experiments, perceived salt intensity; format: in vivo
[1] = tested on: intensity of sodium chloride; conditions: humans; concentrations that specifically inhibit ENaC function; cited from earlier work

Row | SMILES | effect on perceived salt intensity (perceived salt intensity; tested at levels 300-fold above IC50 values in oocytes) | reduction of the intensity of sodium chloride [1] | effect on perceived salt intensity (perceived salt intensity; tested at levels 3000-fold (printed: for benzamil) above IC50 values in oocytes) | effect on perceived salt intensity (perceived salt intensity; tested at levels 3000-fold (printed: for benzamil) above IC50 values in oocytes, listed as phenomil)
1 | N=C(N)NC(=O)c1nc(Cl)c(N)nc1N [amiloride] | did not exhibit a significant effect; also recorded: did not demonstrate a significant effect | 15-20% |  | 
2 | NC(=Nc1ccccc1)NC(=O)c1nc(Cl)c(N)nc1N [phenamil] |  |  | did not demonstrate a significant effect | did not exhibit a significant effect
